Laboratory results as given in patent US10155810B2, “Provasopressin antagonists and uses thereof” (Woomera Therapeutics, Inc., priority 2011, dated 2018).

System: recurrent H82 SCLC cells xenografts
Assay: H82 SCLC xenograft, combination with cyclophosphamide
Type: in vivo, nu/nu mice
Conditions: cyclophosphamide 50 mg/kg daily for 3 days, then 100 μg MAG-1 daily for 11 days, i.p.
Protocol: Three groups of nu/nu mice (8 animal per group) were injected with 1×10^7 recurrent H82 SCLC cells per mouse s.c. on the right flank, and the tumors were allowed to grow to an average of about 300 mm^3 in about 14 days. All treatment was carried out by injection intraperitoneally.

## O=P1(N(CCCl)CCCl)NCCCO1 (stereo not shown) [cyclophosphamide]
  efficacy of combined therapy on tumor growth: synergistic efficacy
